Laboratory results from patent US6939303B2, “Method and system of determining cardiac contractility” (Provecto Tecnico R-2000, Ca, priority 1999, dated 2005).
Where “and” joins values, the source holds several entries; their conditions need not be identical. Equal values may be shown once. Read-outs that look alike come from different tables or passages of the source.

Experiments:
[1] = system: patients, most of them with coronary artery disease; experiment: Cardiac contractility under load or inotropic drugs, data of Takeuchi et al. (Examples 1 and 3); format: in vivo, human; design: key to C, cardiac contractility calculated with the method of this invention: relative contractility scale; control state C = 100; details: for Alteration in cardiac contractility, method of this invention: change vs control
Description: (§1) The capability of the method of the present invention to assess cardiac contractility was evaluated using data from several experiments published in the literature and suitable for analysis. In this approach, afterload in the method was expressed as systolic pressure. Since different methodologies to measure cardiac contractility were used, the comparison between them was attained by analyzing the amount of changes (delta values) and were statistically treated using paired t test, ANOVA, correlation, and agreement between methods when applicable, as, for example, described in Lancet, Vol. 1, pages 307 to 310 (1986) by Bland et al.
Hemodynamic data was utilized from Takeuchi et al. (“Single-Beat Estimation of the Slope of the End-Systolic Pressure-Volume Relation in the Human Left Ventricle”. Circulation, Vol. 83, pages 202 to 212 (1991)).
Initially, to calibrate the model of the method of this invention, the average normal (or control state) values were used: • Preload (end-diastolic volume)=70 (Pre_adj) • Afterload (Systolic pressure)=109 (After_adj) • Stroke volume (SV)=40 (SV_adj) • Cardiac contractility (C)=100 (C_adj) Thereafter, the C value in each case during angiotension infusion was calculated using its corresponding value of preload, afterload and stroke volume. For instance, for the first case receiving angiotenison, where:
The first step was to obtain the edge value for the tetrahedron for the control state using the standard mathematical equation for the volume of a tetrahedron: Edge=^3{overscore (6*sv—adj)} Therefore, for the control state, Edge=^3{overscore (6*40)}=6.214465 The next step was to obtain the unitary (u) values of preload (pre_u) and afterload (after_u).
Pre—u=68*(6.214465/70)=6.036908 [formula] In order to obtain the unitary (u) value of C, using the equation derived herein for cardiac contractility [formula] Therefore, the value of C (C_v) for Case 1 is: [formula] Thus, during angiotensin treatment, the corresponding C values for Cases 1 to 8 were calculated using the method of this invention to be as follows: […]
Cardiovascular data was utilized from “Single-beat Estimation of the Slope of the End-Systolic Pressure-Volume Relation in the Human Left Ventricle,” Circulation, Vol. 83, pages 202 to 212 (1991) by Takeuchi et al. This study involved 25 patients, most of them with coronary artery disease. […] Hemodynamic modifications were measured with high-fidelity micromanometer and ventriculography. […] The increase in cardiac contractility using dobutamine induced changes measured by the method of this invention was 23% in comparison to the measurements made with ejection fraction of 15% and with ESP/ESV of 32%.

[2] = system: patients, most of them with coronary artery disease; design: After_v, afterload (systolic pressure): unit not given beside the values; details: cited from earlier work; for Alteration in cardiac contractility, ESP/ESV / Alteration in cardiac contractility, ejection fraction: change vs control
[3] = system: Conscious Dogs; details: cited from earlier work; for ESP/ESV Avg. Value / EF Avg. Value: Example 12, animals; for EF Avg. Value: ejection fraction; for Change in contractile state, ESP/ESV / Change in contractile state, dP/dt / Change in contractile state, ejection fraction: dogs
[4] = system: Conscious Dogs; experiment: Contractile state with dobutamine and verapamil, data of Little et al. (Example 12); format: in vivo, dog; details: for Method of This Invention Avg. Value: Example 12, animals, control 100.0; for Change in contractile state, method of this invention: dogs
Description: as §1
Cardiovascular data was utilized from “Response of the Left Ventricular End-Systolic Pressure-Volume Relation in Conscious Dogs to a Wide Range of Contractile States,” Circulation, Vol. 78, pages 736 to 745 (1988) by Little et al. In this study, the contractile state was increased by dobutamine and decreased by verapamil.

[5] = system: Conscious Dog; details: cited from earlier work; for Vcf Avg. Value (velocity of shortening) / dP/dT Avg. Value: Example 13, animals; for Change, Vcf / Change, dP/dt / Change, dP/dt DP40: conscious dog
[6] = system: patients with hyperthyroidism; experiment: Cardiac contractility with propranolol, data of Merillon et al. (Example 8); format: in vivo, human; details: administration of propranolol
Description: as §1
Cardiovascular data was utilized from “Left Ventricular Function and Hyperthyroidism,” Br. Heart J., Vol. 46, pages 137 to 143 (1981) by Merillon et al. In patients with hyperthyroidism and invasive assessment of ventricular function, the administration of propranolol produced a fall in cardiac contractility. This change was similar when the inotropic state was assessed by means of P/V ratio (−28%), ejection fraction (−19%), dP/dt (−20%), and dP/dt/TP (−19%). Use of the method of the present invention gave a value for the change in cardiac contractility of −17%.

[7] = system: patients with hyperthyroidism; details: administration of propranolol; cited from earlier work
[8] = system: Conscious Dog; experiment: Changes in preload, afterload and inotropic state, data of Mahler et al. (Example 13); format: in vivo; details: for Method of This Invention Avg. Value: Example 13, animals, control 100.0; for Change, method of the present invention: conscious dog
Description: as §1
Cardiovascular data was utilized from “Effects of Changes in Preload, Afterload and Inotropic State on Ejection and Isovolumic Phase Measures of Contractility in the Conscious Dog,” Am. J. Cardiol., Vol. 35, pages 623 to 634 (1975) by Mahler et al. In this study, increase in preload was attained by Ringer's solution infusion, and rise of blood pressure with phenylephrine administration. […] The method of this invention was less sensitive than the other indices to measure changes in the inotropic state induced with isoproterenol or propranolol.

[9] = system: patients with coronary artery disease; experiment: Cardiac contractility with methoxamine and nitrates, data of Mehmel et al. (Example 6); format: in vivo, human; details: load modifications
Description: as §1
Cardiovascular data was utilized from “The Linearity of the End-Systolic Pressure-Volume Relationship in Man and its Sensitivity for Assessment of Left Ventricular Function,” Circulation, Vol. 63, pages 1216 to 1222 (1981) by Mehmel et al. This study was performed in patients with coronary artery disease and with catheter-tip manometer and ventricular angiogram measurements.

[10] = system: patients with coronary artery disease; details: load modifications; cited from earlier work
[11] = system: normal subjects; experiment: Cardiac contractility with methoxamine and dobutamine, echocardiographic data of Borow et al. (Example 4); format: in vivo, human; details: ten normal subjects
Description: as §1
Cardiovascular data was utilized from “Sensitivity of End-Systolic Pressure-Dimension and Pressure-Volume Relations to the Inotropic State in Humans,” Circulation, Vol. 65, pages 988 to 997 (1982) by Borow et al. Ten normal subjects were studied echocardiographically.

[12] = system: normal subjects; details: ten normal subjects; cited from earlier work
[13] = system: normal subjects and patients with coronary artery disease; details: cited from earlier work
[14] = system: normal subjects and patients with coronary artery disease; experiment: Cardiac contractility with phenylephrine, data of El-Tobgi et al. (Example 5); format: in vivo, human
Description: as §1
Cardiovascular data was utilized from “Left Ventricular Function in Coronary Artery Disease,” J. Am. Coll. Cardiol., Vol. 3, pages 781 to 788 (1984) by El-Tobgi et al. In this study, normal subjects (group I) were compared with two groups of patients with coronary artery disease (groups II and III, the last one with ventricular dysfunction) and studied with tip-manometer catheter and ventriculography measurements. In basal conditions, the method of this invention behaves similar to the ejection fraction in detecting depression in cardiac contractility in group III (−17.2% and −18.0%, respectively).

[15] = group I (normal subjects), increase in blood pressure with phenylephrine
[16] = group III (coronary artery disease with ventricular dysfunction), with the increase in blood pressure

O=[N+]([O-])OCC(CO[N+](=O)[O-])O[N+](=O)[O-] [Nitroglycerin, nitroglycerin]
Alteration in cardiac contractility, method of this invention [1]: −4%
Alteration in cardiac contractility, ESP/ESV [2]: 9%
Alteration in cardiac contractility, ejection fraction [2]: 8.3%

COc1ccc(CCN(C)CCCC(C#N)(c2ccc(OC)c(OC)c2)C(C)C)cc1OC (stereo not drawn) [Verapamil, verapamil]
ESP/ESV Avg. Value [3]: 5.1 mm Hg per ml
EF Avg. Value [3]: 39.2 percentage
Change in contractile state, ESP/ESV [3]: −38.5%
Change in contractile state, dP/dt [3]: −39.9%
Change in contractile state, ejection fraction [3]: −10.9%
Method of This Invention Avg. Value [4]: 77.1
Change in contractile state, method of this invention [4]: −23%

CC(C)NCC(O)COc1cccc2ccccc12 (stereo not drawn) [Propranolol, propranolol]
Vcf Avg. Value (velocity of shortening) [5]: 1.80 circulation per second
dP/dT Avg. Value [5]: 3000 mm Hg per second
Change, Vcf [5]: −18%
Change, dP/dt [5]: −18%
Change, dP/dt DP40 [5]: −13%
Change in cardiac contractility, method of the present invention [6]: −17%
Change in inotropic state, ESP/ESV [7]: −32%
Change in inotropic state, P/V ratio [7]: −28%
Change in inotropic state, dP/dt [7]: −20%
Change in inotropic state, dP/dt/TP [7]: −19%
Change in inotropic state, ejection fraction [7]: −19%
Change in inotropic state, velocity of shortening [7]: −32%
Method of This Invention Avg. Value [8]: 95.2
Change, method of the present invention [8]: −4.8%

O=[N+]([O-])O [Nitrate]
Change in cardiac contractility, method of this invention [9]: −1.7%
Change measured using ejection fraction [10]: 5.0%

angiotensin
Alteration in cardiac contractility, method of this invention [1]: 0.4%
C, cardiac contractility calculated with the method of this invention ([1]; individual cases 1 to 8 during angiotensin treatment, one line per case, control state C=100): 115.24 and 63.33 and 95.99 and 88.76 and 100.71 and 116.54 and 73.04 and 117.72
Alteration in cardiac contractility, ESP/ESV [2]: 9.1%
Alteration in cardiac contractility, ejection fraction [2]: −10.3%
SV_v, stroke volume ([2]; individual cases 1 to 8 receiving angiotensin, one line per case, control mean 40): 41 and 38 and 30 and 34 and 40 and 50 and 36 and 60
Pre_v, preload (end-diastolic volume) ([2]; individual cases 1 to 8 receiving angiotensin, one line per case, control mean 70): 68 and 119 and 66 and 78 and 79 and 82 and 95 and 93
After_v, afterload (systolic pressure) ([2]; individual cases 1 to 8 receiving angiotensin, one line per case, control mean 109): 142 (2×) and 155 and 176 and 164 and 156 and 145 and 125

COc1ccc(OC)c(C(O)C(C)N)c1 (stereo not drawn) [Methoxamine, methoxamine]
Change in cardiac contractility, method of this invention [11]: 1.4%
Change in cardiac contractility, method of this invention [9]: 3.3%
Change measured using ejection fraction [10]: −5.0%
Change in cardiac contractility, ejection fraction [12]: −10.4%

CC(C)NCC(O)c1ccc(O)c(O)c1 (stereo not drawn) [Isoproterenol, isoproterenol]
Vcf Avg. Value (velocity of shortening) [5]: 2.83 circulation per second
dP/dT Avg. Value [5]: 5430 mm Hg per second
Change, Vcf [5]: 53%
Change, dP/dt [5]: 55%
Change, dP/dt DP40 [5]: 56%
Method of This Invention Avg. Value [8]: 120.3
Change, method of the present invention [8]: 20.3%

CC(CCc1ccc(O)cc1)NCCc1ccc(O)c(O)c1 (stereo not drawn) [Dobutamine, dobutamine]
Alteration in cardiac contractility, method of this invention [1]: 23%
Change in cardiac contractility, method of this invention [11]: 27.5%
ESP/ESV Avg. Value [3]: 18.5 mm Hg per ml
EF Avg. Value [3]: 54.8 percentage
Change in contractile state, ESP/ESV [3]: 150%
Change in contractile state, dP/dt [3]: 34.1%
Change in contractile state, ejection fraction [3]: 17.1%
Change in cardiac contractility, ESP/ESV [12]: 57.6%
Change in cardiac contractility, ejection fraction [12]: 12.8%
Alteration in cardiac contractility, ESP/ESV [2]: 32%
Alteration in cardiac contractility, ejection fraction [2]: 15%
Method of This Invention Avg. Value [4]: 111.7
Change in contractile state, method of this invention [4]: 11.7%

CNC[C@H](O)c1cccc(O)c1 [Phenylephrine, phenylephrine]
EF Avg. Value ([13]; Example 5, CAD + VD): 50.5 percentage
ESP/ESV Avg. Value ([13]; Example 5, CAD + VD): 5.0 mm Hg per ml
EF Avg. Value ([13]; Example 5, CAD): 64.0 percentage
ESP/ESV Avg. Value ([13]; Example 5, CAD): 9.9 mm Hg per ml
EF Avg. Value ([13]; Example 5, Healthy): 67.5 percentage
ESP/ESV Avg. Value ([13]; Example 5, Healthy): 10.4 mm Hg per ml
Change in ejection fraction [13, 15]: −0.1%
Fall in ESP/ESV [13, 16]: −51.9%
Fall in ejection fraction [13, 16]: −25.3%
Vcf Avg. Value (velocity of shortening) [5]: 1.61 circulation per second
dP/dT Avg. Value [5]: 3670 mm Hg per second
Change, Vcf [5]: −26%
Change, dP/dt [5]: −2%
Change, dP/dt DP40 [5]: 2%
Method of This Invention Avg. Value [8]: 100.8
Change, method of the present invention [8]: 0.8%
Method of This Invention Avg. Value ([14]; Example 5, CAD): 107.3
Method of This Invention Avg. Value ([14]; Example 5, CAD + VD): 84.2
Method of This Invention Avg. Value ([14]; Example 5, Healthy): 110.4
Change in cardiac contractility, method of the present invention [14, 15]: 10.4%
Fall in cardiac contractility, method of this invention [14, 16]: −15.8%
